Assay results reported in the RepoRT retention time repository (doi:10.1007/s00216-021-03828-0).

Assays:
Settings in all cases: stereoisomer not certain
[1] = RP, Merck Supelco Ascentis Express C18, 100 × 2.1 mm, 2 µm, 40 °C, 0.4 mL/min, estimated dead time 0.55 min; A: water + 0.1% formic acid, pH 3; B: acetonitrile + 0.1% formic acid, pH 3; gradient (min/%B) 0/5 2/5 17/99.9 20/99.9
[2] = RP, Merck Supelco Ascentis Express C18, 100 × 2.1 mm, 2 µm, 40 °C, 0.2 mL/min, estimated dead time 1.1 min; A: water + 0.1% formic acid, pH 3; B: acetonitrile + 0.1% formic acid, pH 3; gradient (min/%B) 0/5 2/5 17/99.9 20/99.9
[3] = as above; remark: listed apart in the source
[4] = RP, Merck Supelco Ascentis Express C18, 100 × 2.1 mm, 2 µm, 40 °C, 0.35 mL/min, estimated dead time 0.63 min; A: water + 0.1% formic acid, pH 3; B: acetonitrile + 0.1% formic acid, pH 3; gradient (min/%B) 0/5 2/5 17/99.9 20/99.9
[5] = RP, Merck Supelco Ascentis Express C18, 100 × 2.1 mm, 2 µm, 40 °C, 0.25 mL/min, estimated dead time 0.88 min; A: water + 0.1% formic acid, pH 3; B: acetonitrile + 0.1% formic acid, pH 3; gradient (min/%B) 0/5 2/5 17/99.9 20/99.9
[6] = RP, Merck Supelco Ascentis Express C18, 100 × 2.1 mm, 2 µm, 40 °C, 0.4 mL/min, estimated dead time 0.55 min; A: water + 0.1% formic acid, pH 3; B: acetonitrile + 0.1% formic acid, pH 3; gradient (min/%B) 0/5 2/5 17/99.9 20/99.9; remark: listed apart in the source
[7] = RP, Merck Supelco Ascentis Express C18, 100 × 2.1 mm, 2 µm, 39 °C, 0.3 mL/min, estimated dead time 0.73 min; A: water + 0.1% formic acid, pH 3; B: acetonitrile + 0.1% formic acid, pH 3; gradient (min/%B) 0/5 2/5 17/99.9 20/99.9

| LC retention time [1] [min] | LC retention time [2] [min] | LC retention time [3] [min] | LC retention time [4] [min] | LC retention time [5] [min] | LC retention time [6] [min] | LC retention time [7] [min] | Compound |
| --- | --- | --- | --- | --- | --- | --- | --- |
| 6.69 | 8.03 | 8.04 | 6.88 | 7.53 | 6.65 | 7.17 | CC12CCC(=O)C=C1CCC1C2C(O)CC2(C)C1CCC2(O)C(=O)CO (stereo not given) [CORTISOL] |
| 6.73 | 8.07 | 8.09 | 6.91 | 7.56 | 6.69 | 7.21 | CC12CCC(=O)C=C1CCC1C2C(=O)CC2(C)C1CCC2(O)C(=O)CO (stereo not given) [CORTISONE] |
| 0.703 | 1.47 | 1.44 | 0.82 | 1.13 | 0.707 | 0.943 | Nc1nc2c(ncn2C2CC(O)C(CO)O2)c(=O)[nH]1 (stereo not given) [DEOXYGUANOSINE] |
| 0.697 | 1.42 | 1.41 | 0.81 | 1.12 | 0.68 | 0.953 | O=c1ccn(C2CC(O)C(CO)O2)c(=O)[nH]1 (stereo not given) [DEOXYURIDINE] |
| 4.58 | 5.92 | 5.96 | 4.81 | 5.43 | 4.54 | 5.15 | CC1NC(=O)NC1CCCCCC(=O)O (stereo not given) [DETHIOBIOTIN] |
| 13.9 | 15.9 | 15.9 | 14.2 | 15.2 | 13.9 | 14.7 | CCC=CCC=CCC=CCC=CCC=CCCCC(=O)O [EICOSAPENTAENOATE] |
| 1.48 | 3.05 | 3.01 | 1.72 | 2.31 | 1.48 | 2.06 | CCC(C(=O)O)C(=O)O [ETHYLMALONATE] |
| 4.85 | 6.32 | 6.33 | 5.07 | 5.78 | 4.81 | 5.39 | COc1cc(C=CC(=O)O)ccc1O [FERULATE] |
| 3.58 | 4.69 | 4.66 | 3.76 | 4.27 | 3.58 | 3.99 | Nc1nc2ncc(CNc3ccc(C(=O)NC(CCC(=O)O)C(=O)O)cc3)nc2c(=O)[nH]1 (stereo not given) [FOLATE] |
| 13.3 | 15.3 | 15.4 | 13.6 | 14.6 | 13.2 | 14 | CCCCCCCCCCCCCC(=O)OCC(O)CO (stereo not given) [GLYCEROL-MYRISTATE] |
| 9.09 | 10.4 | 10.5 | 9.28 | 9.94 | 9.05 | 9.57 | CC(CCC(=O)NCC(=O)O)C1CCC2C3C(O)CC4CC(O)CCC4(C)C3CCC12C (stereo not given) [GLYCOCHENODEOXYCHOLATE] |
| 8 | 9.2 | 9.22 | 8.17 | 8.75 | 7.96 | 8.42 | CC(CCC(=O)NCC(=O)O)C1CCC2C3C(O)CC4CC(O)CCC4(C)C3CC(O)C12C (stereo not given) [GLYCOCHOLATE] |
| 0.663 | 1.36 | 1.37 | 0.757 | 1.09 | 0.693 | 0.883 | Nc1nc2nc[nH]c2c(=O)[nH]1 [GUANINE] |
| 3.45 | 5.11 | 5.12 | 3.72 | 4.54 | 3.42 | 4.09 | O=C(O)CNC(=O)c1ccccc1 [HIPPURATE] |
| 1.22 | 2.48 | 2.38 | 1.35 | 1.92 | 1.16 | 1.64 | O=C(O)Cc1cc(O)ccc1O [HOMOGENTISATE] |
| 3.96 | 5.42 | 5.43 | 4.18 | 4.9 | 3.93 | 4.5 | COc1cc(CC(=O)O)ccc1O [HOMOVANILLATE] |
| 3.96 | 5.42 | 5.43 | 4.18 | 4.9 | 3.93 | 4.5 | O=C(O)C(O)Cc1ccc(O)cc1 (stereo not given) [HYDROXYPHENYLLACTATE] |
| 4.27 | 5.83 | 5.84 | 4.51 | 5.28 | 4.23 | 4.85 | NC(=O)Cc1c[nH]c2ccccc12 [INDOLE-3-ACETAMIDE] |
| 5.61 | 7.25 | 7.27 | 5.95 | 6.66 | 4.78 | 6.22 | OCCc1c[nH]c2ccccc12 [INDOLE-3-ETHANOL] |
| 5.52 | 7 | 7.11 | 5.84 | 6.47 | 5.58 | 6.08 | O=C(O)C(=O)Cc1c[nH]c2ccccc12 [INDOLE-3-PYRUVATE] |
| 2.15 | 4.97 | 4.21 | 2.45 | 4.45 | 2.17 | 4.07 | O=CCc1c[nH]c2ccccc12 [INDOLEACETALDEHYDE] |
| 0.703 | 1.39 | 1.37 | 0.76 | 1.12 | 0.663 | 0.943 | O=c1[nH]cnc2c1ncn2C1OC(CO)C(O)C1O (stereo not given) [INOSINE] |
| 0.697 | 1.45 | 1.43 | 0.793 | 1.14 | 0.717 | 0.93 | CCC(C)C(N)C(=O)O (stereo not given) [ISOLEUCINE] |
| 2.97 | 4.52 | 4.53 | 3.24 | 4 | 2.93 | 3.64 | O=C(O)c1cc(=O)c2ccccc2[nH]1 [KYNURENATE] |
| 1.56 | 3.02 | 2.97 | 1.78 | 2.41 | 1.53 | 2.02 | NC(=O)[C@@H](N)Cc1c[nH]c2ccccc12 [L-TRYPTOPHANAMIDE] |
| 12.6 | 14.7 | 14.7 | 12.9 | 13.9 | 12.5 | 13.3 | CCCCCCCCCCCC(=O)O [LAURATE] |
| 9.29 | 10.8 | 10.7 | 9.5 | 10.2 | 9.25 | 9.71 | CCCCCCCCCCCC(=O)OC(CC(=O)[O-])C[N+](C)(C)C (stereo not given) [LAUROYLCARNITINE] |
| 0.743 | 1.56 | 1.55 | 0.873 | 1.22 | 0.727 | 0.98 | CC(C)CC(N)C(=O)O (stereo not given) [LEUCINE] |
| 7.03 | 8.19 | 8.2 | 7.2 | 7.75 | 7 | 7.45 | NC(Cc1cc(I)c(Oc2ccc(O)c(I)c2)c(I)c1)C(=O)O (stereo not given) [LIOTHYRONINE] |
| 12.4 | 14.4 | 14.4 | 12.7 | 13.7 | 12.4 | 13.1 | CC(CCC(=O)O)C1CCC2C3CCC4CC(O)CCC4(C)C3CCC12C (stereo not given) [LITHOCHOLATE] |
